Here are results for two molecules from US12422427B2, “Compounds for treatment of diseases and methods of screening therefor” (Max-Planck-Gesellschaft zur Förderung der Wissenschaften …, priority 2018, dated 2025).

The subject of assay [1] is iPS MNs expressing P525L FUS. Nature of the assay: Axon dieback of iPS-derived motor neurons expressing P525L FUS. Conditions: 2 μM in culture medium, 60 days. Format: cell-based, human. The source says:
In humans, one cause of familial ALS is FUS mutation, particularly in the C terminal NLS. P525L is one such mutation, and iPSC-derived motor neurons (iPSC MNs) expressing P525L from ALS patients show defects consistent with motor neuron defects in the patient. iPSC MNs can be grown through silicone channels, positioning the soma on one side with the axons protruding through the channels to the far side. Such cultures can be maintained for long periods (>60 days). However, when expressing P525L FUS, the axons die back within this time period without exogenous cell stressors, although P525L FUS MNs have a greater propensity to form stress granules. This is similar to axon retraction leading to motor dysfunction in patients. Therefore whether lipoamide or lipoic acid was able to improve these phenotypes was tested. […] To test this the inventors analysed transport of lysosomes within the axons of iPS MNs expressing P525L FUS with or without lipoamide in comparison to iPS MNs expressing WT FUS (FIGS. 12A-12B). […]
For analysis of axon dieback transport AH-ALS1-F58 iPS MNs expressing P525L FUS or an isogenic control expressing WT FUS were grown with 2 μM compound or an equal volume of DMSO for 60 days. […] Experiments and analysis were performed blinded, and axonal dieback was scored qualitatively using phase contrast images captured every 10 to 20 days.

Assay [2] has as its system HeLa cells expressing FUS GFP. The experiment in a line: Stress granule formation in HeLa FUS GFP cells under different stresses. Format: cell-based. As to conditions: 10 μM; mitochondrial (rotenone), hyperosmotic (sorbitol) or arsenate stress. How it is done:
The stressor, arsenate, will react with the thiol groups of lipoamide. Therefore, to exclude the possibility that lipoamide is acting only by removing the stressor, so it was further tested whether lipoic acid can prevent stress granule formation triggered by other stresses than arsenate (an oxidative) stress: Mitochondrial electron transport chain inhibition (rotenone), heat stress (42° C.), hyperosmotic stress (sorbitol, a non-metabolisable sugar), glycolysis inhibition ([…] in the absence of glucose) or serum starvation.
Various cellular stresses were achieved by replacing 1 h 1 mM potassium arsenate treatment with other conditions: 100 μM rotenone (R8875, Sigma Aldrich) from a 1 M stock in DMSO for 2 h (mitochondrial stress). […] Sorbitol (S1876, Sigma Aldrich) from a 4 M stock in H2O for 1 h (osmotic stress). 42° C. in normal growth medium for 30 m (heat stress). […] Appropriate solvent controls were used.

The next assay deals with T1, FUS GFP (Homo sapiens, UniProt P35637).
T1 construct: His MBP (N, cleaved yes); made in house; host or cells: baculovirus/insect cell expression system
T1 sequence (P35637 1-526): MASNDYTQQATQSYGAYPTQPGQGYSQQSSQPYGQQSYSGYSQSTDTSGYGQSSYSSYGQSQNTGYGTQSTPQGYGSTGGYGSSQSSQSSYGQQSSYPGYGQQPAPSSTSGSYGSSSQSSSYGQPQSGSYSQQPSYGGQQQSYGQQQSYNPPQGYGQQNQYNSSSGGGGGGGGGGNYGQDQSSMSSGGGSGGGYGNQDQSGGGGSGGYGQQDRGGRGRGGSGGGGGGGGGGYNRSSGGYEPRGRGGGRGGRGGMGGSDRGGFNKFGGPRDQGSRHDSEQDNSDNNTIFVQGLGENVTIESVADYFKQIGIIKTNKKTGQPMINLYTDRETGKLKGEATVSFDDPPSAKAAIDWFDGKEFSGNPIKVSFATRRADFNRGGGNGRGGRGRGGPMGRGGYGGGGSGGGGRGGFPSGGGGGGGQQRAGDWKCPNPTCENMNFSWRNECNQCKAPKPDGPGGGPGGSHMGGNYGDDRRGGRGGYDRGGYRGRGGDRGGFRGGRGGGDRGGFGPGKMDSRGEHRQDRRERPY
The experiment in a line: Salt (KCl) sensitivity of FUS GFP droplet formation in vitro. Format: biochemical. Conditions: 100 μM compound, 2.8 μM FUS GFP. On the procedure:
FIG. 6A) Droplets formed by 2.8 μM FUS GFP in vitro with different concentrations of KCl (which inhibits droplet formation) with 100 μM lipoamide, lipoic acid or equivalent DMSO solvent control (1%). Lipoamide and lipoic acid subtly promote droplet formation. FIG. 6B) Effect of lipoamide and lipoic acid on G156E FUS GFP droplet ‘aging’ while shaking, relative to an equivalent DMSO solvent control (0.3%). Both compounds delay fibre formation. FIG. 6C) Representative fluorescence recovery after photobleaching (FRAP) of FUS droplets and fibres formed during the aging shown in FIG. 6B). Aged droplets treated with lipoamide or lipoic acid retain fast FRAP indicating liquidity. FIG. 6D) Quantitation of fluorescence signal intensity illustrated in FIG. 6C). Error bars represent standard deviation.
It was determined if lipoic acid or lipoamide affected the conditions under which FUS would phase separate in vitro. […]
For in vitro solidification assays, FUS GFP in storage buffer was diluted in water to give 10 μM FUS, 50 mM Tris·HCl pH 7.4 and 1 mM DTT in a 20 μl volume in non-binding clear bottom 384 well plates (Greiner Bio-One, 781906). […] Fibre and droplet formation were analysed by widefield epifluorescence using a DeltaVision Elite microscope (GE Healthcare Life Sciences) with a Plan ApoN 60× NA 1.4 oil immersion objective (Olympus) and an sCMOS camera (PCO). […]

On to `NC(=O)CCCCC1CCSS1` (racemic) [lipoamide, 5-(1,2-dithiolan-3-yl)pentanamide], for which, in assay [1], the axon die back result is “prevented such die back”. Also, the stress granule formation entry in assay [2] is “reduced stress granule formation”. Moreover, the “conditions (KCl concentration) under which FUS phase separates” value at FUS GFP is “slightly increasing the minimum KCl concentration at which phase separation would occur”.

`O=C(O)CCCCC1CCSS1` (racemic) [lipoic acid, 5-(1,2-dithiolan-3-yl)pentanoic acid]: the axon die back result in assay [1] is recorded as “prevented such die back”. Further, in assay [2], the stress granule formation entry was “reduced stress granule formation”. Moreover, the “conditions (KCl concentration) under which FUS phase separates” value on FUS GFP was “slightly increasing the minimum KCl concentration at which phase separation would occur”.
